From patent publication US10421765B2, “Tetrahydropyrido[4,3-d]pyrimidine inhibitors of ATR kinase” (Board of Regents, The University of Texas System, priority 2017, dated 2019)
Like-named read-outs stand apart in the source and are kept apart here.

Key:
[1] = system: ATR-driven phosphorylation of Chk1 kinase at Serine 345 in HT-29 colorectal adenocarcinoma cells; experiment: pCHK1 cellular assay (CHK1 p-Ser345 AlphaScreen SureFire); assay type: cell-based; details: 4-nitroquinoline N-oxide 12 uM, read-out: Cell IC50 (pCHK1 IC50 values)
Outline: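 HT-29 cells seeded overnight, treated with 1:3 serially diluted compound for 90 minutes at 37° C., then 12 uM (final) 4-nitroquinoline N-oxide for 120 minutes. Lysates read for Chk1 p-Ser345 by AlphaScreen SureFire; IC50 from four-parameter logistic fit, normalized to DMSO (max) and 5 uM ATR inhibitor (min).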

[2] = target: ATR/ATRIP complex (Homo sapiens (Human), UniProt Q13535); experiment: ATR/ATRIP enzymatic assay (Caliper-based); assay type: biochemical; details: FAM-labeled RAD17 peptide, ATP
Outline: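 FLAG-TEV-ATR/His6-ATRIP co-expressed in HEK293 and anti-FLAG purified. Compound preincubated 30 min at 28 °C with enzyme (2x solution 4 nM), then FAM-RAD17 peptide (2x solution 10 uM, 2 μM ATP) added for 6 h at 28 °C; HEPES pH 8, 10 mM MnCl2. Caliper conversion read-out, IC50 from four-parameter fit.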

[3] = Homo sapiens, HT-29, HT-29 cells
[4] = estimated range, read-out: ATR/ATRIP Enzyme IC50 (estimated class)
[5] = read-out: ATR/ATRIP Enzyme IC50

ATR/ATRIP complex, sequence (Q13535 whole entry): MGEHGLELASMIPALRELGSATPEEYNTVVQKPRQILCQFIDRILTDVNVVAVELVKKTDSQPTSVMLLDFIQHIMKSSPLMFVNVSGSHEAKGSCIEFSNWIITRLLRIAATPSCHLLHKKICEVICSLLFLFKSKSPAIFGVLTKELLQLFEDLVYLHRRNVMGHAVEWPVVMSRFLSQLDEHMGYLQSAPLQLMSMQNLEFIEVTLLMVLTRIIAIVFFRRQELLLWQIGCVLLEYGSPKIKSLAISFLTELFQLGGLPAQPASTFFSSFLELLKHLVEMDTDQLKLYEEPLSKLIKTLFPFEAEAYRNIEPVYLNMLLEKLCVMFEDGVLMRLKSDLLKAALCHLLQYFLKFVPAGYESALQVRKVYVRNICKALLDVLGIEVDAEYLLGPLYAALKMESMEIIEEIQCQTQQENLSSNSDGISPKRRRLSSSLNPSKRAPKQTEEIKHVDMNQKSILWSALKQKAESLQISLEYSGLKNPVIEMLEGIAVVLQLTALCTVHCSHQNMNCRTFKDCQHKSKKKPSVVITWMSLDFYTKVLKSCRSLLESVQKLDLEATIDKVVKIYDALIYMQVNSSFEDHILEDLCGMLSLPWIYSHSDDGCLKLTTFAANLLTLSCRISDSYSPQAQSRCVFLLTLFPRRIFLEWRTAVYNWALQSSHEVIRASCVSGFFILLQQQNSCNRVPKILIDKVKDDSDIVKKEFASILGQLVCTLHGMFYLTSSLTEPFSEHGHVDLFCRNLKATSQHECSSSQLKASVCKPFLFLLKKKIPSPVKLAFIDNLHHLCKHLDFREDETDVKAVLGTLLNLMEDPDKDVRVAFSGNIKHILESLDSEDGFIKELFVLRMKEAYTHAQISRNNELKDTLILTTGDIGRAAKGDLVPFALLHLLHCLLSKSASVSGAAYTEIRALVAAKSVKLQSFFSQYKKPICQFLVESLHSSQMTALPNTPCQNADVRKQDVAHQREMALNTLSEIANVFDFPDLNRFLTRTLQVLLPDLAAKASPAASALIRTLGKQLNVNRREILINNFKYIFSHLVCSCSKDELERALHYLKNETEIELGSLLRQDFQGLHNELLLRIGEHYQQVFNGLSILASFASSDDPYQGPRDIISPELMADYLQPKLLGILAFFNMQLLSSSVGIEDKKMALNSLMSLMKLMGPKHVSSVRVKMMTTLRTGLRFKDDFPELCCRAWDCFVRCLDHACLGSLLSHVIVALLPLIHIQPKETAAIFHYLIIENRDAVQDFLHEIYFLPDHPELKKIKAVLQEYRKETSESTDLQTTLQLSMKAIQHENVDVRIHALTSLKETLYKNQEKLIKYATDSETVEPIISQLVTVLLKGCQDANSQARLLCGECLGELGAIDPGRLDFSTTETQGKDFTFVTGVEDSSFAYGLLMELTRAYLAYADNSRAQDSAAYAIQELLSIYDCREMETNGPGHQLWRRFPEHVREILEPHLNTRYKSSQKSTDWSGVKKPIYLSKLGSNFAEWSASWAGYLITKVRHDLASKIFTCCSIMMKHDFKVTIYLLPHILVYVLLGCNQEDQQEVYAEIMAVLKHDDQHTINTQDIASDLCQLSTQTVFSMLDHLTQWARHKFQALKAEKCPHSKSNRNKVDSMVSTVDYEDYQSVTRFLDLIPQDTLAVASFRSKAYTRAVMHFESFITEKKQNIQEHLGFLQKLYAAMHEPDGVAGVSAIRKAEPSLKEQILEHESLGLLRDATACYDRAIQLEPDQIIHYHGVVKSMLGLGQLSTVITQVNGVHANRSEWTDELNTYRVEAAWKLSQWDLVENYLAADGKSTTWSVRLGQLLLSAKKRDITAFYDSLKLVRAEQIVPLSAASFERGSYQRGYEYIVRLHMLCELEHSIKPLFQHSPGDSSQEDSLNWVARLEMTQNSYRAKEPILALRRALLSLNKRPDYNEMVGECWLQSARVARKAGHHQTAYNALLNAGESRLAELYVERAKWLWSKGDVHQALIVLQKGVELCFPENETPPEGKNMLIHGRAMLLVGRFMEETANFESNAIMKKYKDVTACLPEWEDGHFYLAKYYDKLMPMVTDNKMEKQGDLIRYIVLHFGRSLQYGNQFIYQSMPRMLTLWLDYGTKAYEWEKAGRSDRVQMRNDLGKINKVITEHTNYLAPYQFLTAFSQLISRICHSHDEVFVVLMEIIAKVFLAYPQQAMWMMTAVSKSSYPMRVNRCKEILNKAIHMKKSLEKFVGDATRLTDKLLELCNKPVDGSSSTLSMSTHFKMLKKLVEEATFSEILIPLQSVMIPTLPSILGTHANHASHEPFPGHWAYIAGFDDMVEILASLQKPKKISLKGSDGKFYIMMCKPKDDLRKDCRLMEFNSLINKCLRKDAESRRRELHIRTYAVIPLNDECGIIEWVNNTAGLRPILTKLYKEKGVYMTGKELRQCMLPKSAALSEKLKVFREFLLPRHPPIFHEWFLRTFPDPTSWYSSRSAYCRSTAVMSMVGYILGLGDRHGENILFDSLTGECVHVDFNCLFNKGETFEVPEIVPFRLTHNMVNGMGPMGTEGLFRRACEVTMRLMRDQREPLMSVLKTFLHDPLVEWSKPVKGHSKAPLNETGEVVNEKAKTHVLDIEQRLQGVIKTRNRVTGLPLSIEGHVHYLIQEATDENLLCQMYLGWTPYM
ATR/ATRIP complex, sequence (Q8WXE1 whole entry partner): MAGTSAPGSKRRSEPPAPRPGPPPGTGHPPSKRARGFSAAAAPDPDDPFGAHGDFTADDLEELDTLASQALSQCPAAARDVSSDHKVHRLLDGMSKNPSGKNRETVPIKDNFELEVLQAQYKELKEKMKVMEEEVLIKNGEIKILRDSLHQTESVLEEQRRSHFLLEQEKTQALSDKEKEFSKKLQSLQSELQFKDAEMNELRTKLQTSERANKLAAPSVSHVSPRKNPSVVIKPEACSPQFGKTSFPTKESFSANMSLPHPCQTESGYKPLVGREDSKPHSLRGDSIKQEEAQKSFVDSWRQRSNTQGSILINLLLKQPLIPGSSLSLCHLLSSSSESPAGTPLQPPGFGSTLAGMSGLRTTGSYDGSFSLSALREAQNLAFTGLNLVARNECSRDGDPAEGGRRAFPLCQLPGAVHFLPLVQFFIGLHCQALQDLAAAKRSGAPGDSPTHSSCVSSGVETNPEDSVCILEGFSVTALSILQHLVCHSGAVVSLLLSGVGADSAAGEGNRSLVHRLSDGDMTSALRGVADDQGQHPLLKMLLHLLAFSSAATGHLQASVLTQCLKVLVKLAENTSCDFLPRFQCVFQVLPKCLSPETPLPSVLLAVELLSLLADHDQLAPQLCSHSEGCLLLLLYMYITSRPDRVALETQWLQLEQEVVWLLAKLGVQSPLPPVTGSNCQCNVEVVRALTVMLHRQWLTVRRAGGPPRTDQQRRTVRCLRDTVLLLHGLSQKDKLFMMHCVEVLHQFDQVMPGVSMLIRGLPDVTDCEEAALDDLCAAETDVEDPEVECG

| Compound | IC50 [1, 3] | IC50 [2, 4] | IC50 [2, 5] | IC50 ([1]; HT-29 cells) |
| --- | --- | --- | --- | --- |
| C[C@@H]1Cc2ncnc(N3CCC4(CC3)NC(=O)NC4=O)c2CN1c1cc(Cl)nc2[nH]ccc12 [Example 61, (R)-8-(6-(6-chloro-1H-pyrrolo[2,3-b]pyridin-4-yl)-7-methyl-5,6,7,8-tetrahydropyrido[4,3-d]pyrimidin-4-yl)-1,3,8-triazaspiro[4.5]decane-2,4-dione] | 570 nM | – | 514 nM | – |
| COc1cc(N2Cc3c(ncnc3C3CCN(S(C)(=O)=O)CC3)C[C@H]2C)c2cc[nH]c2n1 [Example 91, (R)-6-(6-methoxy-1H-pyrrolo[2,3-b]pyridin-4-yl)-7-methyl-4-(1-(methylsulfonyl)-piperidin-4-yl)-5,6,7,8-tetrahydropyrido[4,3-d]-pyrimidine] | 18 nM | – | 269 nM | – |
| C[C@@H]1Cc2ncnc(N3CCC34CN(S(C)(=O)=O)C4)c2CN1c1cc(Cl)nc2[nH]ccc12 [Example 37, (R)-6-(6-chloro-1H-pyrrolo[2,3-b]pyridin-4-yl)-7-methyl-4-(6-(methylsulfonyl)-1,6-diazaspiro[3.3]heptan-1-yl)-5,6,7,8-tetrahydropyrido[4,3-d] pyrimidine] | 56 nM | 1000 to 10000 nM | – | – |
| CC1Cc2ncnc(C3CCN(S(C)(=O)=O)CC3)c2CN1c1ccnc2[nH]ccc12 (stereo not shown) [Example 4, 7-Methyl-4-(1-(methylsulfonyl)piperidin-4-yl)-6-(1H-pyrrolo[2,3-b]pyridin-4-yl)-5,6,7,8-tetrahydropyrido[4,3-d]pyrimidine bis(trifluoroacetate)] | 157 nM | – | 833 nM | – |
| C[C@@H]1Cc2ncnc(C3CCN(S(C)(=O)=O)CC3)c2CN1c1ccnc2[nH]ccc12 [Example 6, (R)-7-Methyl-4-(1-(methylsulfonyl)piperidin-4-yl)-6-(1H-pyrrolo[2,3-b]pyridin-4-yl)-5,6,7,8-tetrahydropyrido[4,3-d]pyrimidine bis(trifluoroacetate)] | 52 nM | – | 499 nM | – |
| C[C@@H]1Cc2ncnc(N3CCC[C@@H](C(C)(C)O)C3)c2CN1c1cc(Cl)nc2[nH]ccc12 [Example 70, 2-((R)-1-((R)-6-(6-chloro-1H-pyrrolo[2,3-b]-pyridin-4-yl)-7-methyl-5,6,7,8-tetrahydropyrido-[4,3-d]pyrimidin-4-yl)-piperidin-3-yl)propan-2-ol] | 10 nM | – | 87 nM | – |
| C[C@@H]1Cc2ncnc(C3=C[C@@H]4CC[C@H](C3)N4S(C)(=O)=O)c2CN1c1cc(Cl)nc2[nH]ccc12 [Example 60, (R)-6-(6-chloro-1H-pyrrolo[2,3-b]pyridin-4-yl)-7-methyl-4-((1S,5R)-8-(methylsulfonyl)-8-azabicyclo[3.2.1]oct-2-en-3-yl)-5,6,7,8-tetra-hydropyrido[4,3-d]-pyrimidine] | 22 nM | – | 66 nM | – |
| C[C@@H]1Cc2ncnc(C3CCN(S(C)(=O)=O)CC3)c2CN1c1cnc2cn[nH]c2c1 [Example 89, (R)-7-methyl-4-(1-(methylsulfonyl)piperidin-4-yl)-6-(1H-pyrazolo-[4,3-b]pyridin-6-yl)-5,6,7,8-tetrahydro-pyrido[4,3-d]pyrimidine] | 7390 nM | – | 138 nM | – |
| C[C@@H]1Cc2ncnc(N3C[C@H]4CC[C@@H](C3)[C@@H]4NS(C)(=O)=O)c2CN1c1cc(Cl)nc2[nH]ccc12 [Example 38, N-((1R,5S)-(8-anti)-3-((R)-6-(6-chloro-1H-pyrrolo[2,3-b]pyridin-4-yl)-7-methyl-5,6,7,8-tetrahydropyrido[4,3-d]pyrimidin-4-yl)-3-azabicyclo[3.2.1]octan-8-yl)methanesulfonamide] | 83 nM | – | 929 nM | – |
| C[C@@H]1Cc2ncnc(N3CCC4(CC3)CNC(=O)O4)c2CN1c1cc(Cl)nc2[nH]ccc12 [Example 31, 8-[(7R)-6-{6-chloro-1H-pyrrolo[2,3-b]pyridin-4-yl}-7-methyl-5H,6H,7H,8H-pyrido[4,3-d]pyrimidin-4-yl]-1-oxa-3,8-diazaspiro[4.5]decan-2-one] | 72 nM | – | 434 nM | – |
| C[C@@H]1Cc2ncnc(N3CCC(S(C)(=N)=O)CC3)c2CN1c1cc(Cl)nc2[nH]ccc12 (stereo partly drawn) [Example 58, (1-((R)-6-(6-chloro-1H-pyrrolo[2,3-b]pyridin-4-yl)-7-methyl-5,6,7,8-tetrahydropyrido[4,3-d]pyrimidin-4-yl)piperidin-4-yl)(imino)(methyl)-λ^6-sulfanone] | 218 nM | – | 966 nM | – |

Second part, the compound after the results:

| IC50 [1, 3] | IC50 [2, 4] | IC50 [2, 5] | IC50 ([1]; HT-29 cells) | Compound |
| --- | --- | --- | --- | --- |
| 57 nM | 1000 to 10000 nM | – | – | C[C@@H]1Cc2ncnc(N3CCN(S(C)(=O)=O)C(C)(C)C3)c2CN1c1cc(Cl)nc2[nH]ccc12 [Example 21, 4-[(7R)-6-{6-chloro-1H-pyrrolo[2,3-b]pyridin-4-yl}-7-methyl-5H,6H,7H,8H-pyrido[4,3-d]pyrimidin-4-yl]-1-methanesulfonyl-2,2-dimethylpiperazine] |
| 55 nM | – | 1200 nM | – | C[C@@H]1Cc2ncnc(C3CCCN(S(C)(=O)=O)C3)c2CN1c1ccnc2[nH]ccc12 (single isomer, unassigned) [Example 50a] |
| 16 nM | – | 472 nM | – | C[C@@H]1Cc2ncnc(N3CCC(NS(C)(=O)=O)CC3)c2CN1c1ccnc2[nH]ccc12 [Example 64, (R)-N-(1-(7-methyl-6-(1H-pyrrolo[2,3-b]-pyridin-4-yl)-5,6,7,8-tetrahydropyrido[4,3-d]-pyrimidin-4-yl)piperidin-4-yl)methanesulfonamide] |
| 48 nM | – | 283 nM | – | C[C@@H]1Cc2ncnc(N3CC4CCC(C3)C4NS(C)(=O)=O)c2CN1c1ccnc2[nH]ccc12 (stereo partly drawn) [Example 69, N-(3-((R)-7-methyl-6-(1H-pyrrolo[2,3-b]-pyridin-4-yl)-5,6,7,8-tetrahydropyrido[4,3-d]-pyrimidin-4-yl)-3-aza-bicyclo[3.2.1]octan-8-yl)-methanesulfonamide] |
| 13 nM | – | 120 nM | – | C[C@@H]1Cc2ncnc(N3CCC(NS(C)(=O)=O)CC3)c2CN1c1cc(Cl)nc2[nH]ccc12 [Example 29, N-{1-[(7R)-6-{6-chloro-1H-pyrrolo[2,3-b]pyridin-4-yl}-7-methyl-5H,6H,7H,8H-pyrido [4,3-d]pyrimidin-4-yl]piperidin-4-yl}methanesulfonamide] |
| 10000 nM | – | 30000 nM | – | CS(=O)(=O)N1CCC(c2ncnc3c2CN(c2ccnc4[nH]ccc24)[C@@H](CF)C3)CC1 [Example 52a, (R)-7-(fluoromethyl)-4-(1-(methylsulfonyl)piperidin-4-yl)-6-(1H-pyrrolo[2,3-b]pyridin-4-yl)-5,6,7,8-tetrahydropyrido[4,3-d]pyrimidine] |
| 611 nM | 1000 to 10000 nM | – | – | C[C@@H]1Cc2ncnc(C3CCN(S(C)(=O)=O)CC3)c2CN1c1ncnc2[nH]ccc12 [Example 23, 1-methanesulfonyl-4-[(7R)-7-methyl-6-{7H-pyrrolo[2,3-d]pyrimidin-4-yl}-5H,6H,7H,8H-pyrido[4,3-d]pyrimidin-4-yl]piperidine] |
| 127 nM | – | 979 nM | – | C[C@@H]1Cc2ncnc(N3CCC(S(C)(=O)=O)CC3)c2CN1c1ccnc2[nH]ccc12 [Example 8, (R)-7-Methyl-4-(4-(methylsulfonyl)piperidin-1-yl)-6-(1H-pyrrolo[2,3-b]pyridin-4-yl)-5,6,7,8-tetrahydropyrido[4,3-d]pyrimidine bis(trifluoroacetate)] |
| 14 nM | – | 103 nM | – | C[C@@H]1Cc2ncnc(N3CC(C#N)C3)c2CN1c1cc(Cl)nc2[nH]ccc12 [Example 79, (R)-1-(6-(6-chloro-1H-pyrrolo[2,3-b]pyridin-4-yl)-7-methyl-5,6,7,8-tetrahydropyrido[4,3-d]-pyrimidin-4-yl)azetidine-3-carbonitrile] |
| – | – | 279 nM | 31 nM | N-((1R,5S,8R)-3-((R)-7- methyl-6-(1H-pyrrolo- [2,3-b]pyridin-4-yl)- 5,6,7,8-tetrahydropyrido- [4,3-d]pyrimidin-4-yl)-3- azabicyclo[3.2.1]octan-8- yl)methanesulfonamide [Example 74] |
| 586 nM | – | 1290 nM | – | CS(=O)(=O)N1CCC(c2ncnc3c2CN(c2ccnc4[nH]ccc24)C(CF)C3)CC1 (stereo not shown) [Example 92] |
| 30 nM | – | 311 nM | – | CCOc1cc(N2Cc3c(ncnc3C3CCN(S(C)(=O)=O)CC3)C[C@H]2CF)c2cc[nH]c2n1 [Example 55b, (S)-6-(6-ethoxy-1H-pyrrolo[2,3-b]pyridin-4-yl)-7-(fluoromethyl)-4-(1-(methylsulfonyl)piperidin-4-yl)-5,6,7,8-tetrahydropyrido[4,3-d]pyrimidine] |
| 138 nM | – | 253 nM | – | COC(=O)[C@@H]1CCCN(c2ncnc3c2CN(c2cc(Cl)nc4[nH]ccc24)[C@H](C)C3)C1 [Example 62, Methyl (R)-1-((R)-6-(6-chloro-1H-pyrrolo[2,3-b]pyridin-4-yl)-7-methyl-5,6,7,8-tetrahydropyrido-[4,3-d]pyrimidin-4-yl)-piperidine-3-carboxylate] |
| 152 nM | 1000 to 10000 nM | – | – | CC1Cc2ncnc(-c3cccc(S(C)(=O)=O)c3)c2CN1c1ccnc2[nH]ccc12 (stereo not shown) [Example 15, 4-(3-methanesulfonyl-phenyl)-7-methyl-6-{1H-pyrrolo[2,3-b]pyridin-4-yl}-5H,6H,7H,8H-pyrido[4,3-d]pyrimidine] |
| 183 nM | – | 840 nM | – | C[C@@H]1Cc2ncnc([C@@H]3CCN(S(C)(=O)=O)C3)c2CN1c1ccnc2[nH]ccc12 [Example 57a, (R)-7-methyl-4-((R)-1-(methylsulfonyl)pyrrolidin-3-yl)-6-(1H-pyrrolo[2,3-b]pyridin-4-yl)-5,6,7,8-tetrahydropyrido[4,3-d]pyrimidine] |
